Our source for the IC50 and GI50 values is US10370379B2, “Compounds and compositions useful for treating disorders related to NTRK” (BLUEPRINT MEDICINES CORPORATION, priority 2015, dated 2019).

A word on the IC50: it is the point on the concentration scale where inhibition reaches its midpoint. By GI50 is commonly meant the concentration at which growth is held to half of that of the control. Lower therefore signals greater sensitivity of the cells.

The test system of experiment [1] is KM12 Cliff (G595R) cell line. Description: NTRK G595R mutant cellular assay (KM12 Cliff, CellTiter-Glo). It is filed as cell-based. The following applies: for IC50: Homo sapiens, KM12 Cliff (G595R) cells, 72 hr, CellTiter-Glo. How it is done:
(§1) NTRK Wild Type and G595R Mutant Cellular Assays Protocol
(§2) KM12 wild type colon carcinoma cell line harboring the TPM3-NTRK1 fusion protein was obtained from the National Cancer Institute (NCI). This line has been previously shown to be dependent upon the NTRK activity derived from the NTRK fusion protein for growth and survival. […] Cells were first plated in 384-well plates at 1000 cells/well in complete media (10% FBS and 1% pen/strep) and incubated overnight at 37° C. Cells were then dosed with test articles at varying concentrations using the Bravo liquid handling system. […] Each compound was run in duplicate per plate. […] 72 hr after dosing, assay plates were developed using CellTiter-Glo (Promega) and resultant luminescence was read on the Envision plate reader. IC50 determinations were calculated using a 4-parameter curve fitting algorithm
Background: In ATP-based viability assays light output follows the ATP content of the culture.

Experiment [2] relates to KM12 wild type colon carcinoma cell line harboring the TPM3-NTRK1 fusion protein. In words: NTRK wild type cellular assay (KM12, CellTiter-Glo). The following applies: for IC50: KM12 wild type cells, 72 hr, CellTiter-Glo; for GI50: NTRK wt cellular, known NTRK inhibitors. It is filed as cell-based. The procedure:
as §1, §2

The target of another experiment is wild type NTRK1 enzyme (Homo sapiens (Human), UniProt P04629). In words: NTRK1 Wild Type Assay at 1 mM ATP. It is filed as biochemical. The procedure:
NTRK1 Wild Type Assay at 1 mM ATP
The reaction was stopped by the addition of 70 μL of Stop buffer (100 mM HEPES pH 7.5, 0.015% Brij 35, 35 mM EDTA and 0.2% of Coating Reagent 3 (Caliper Lifesciences)). The plate was then read on a Caliper EZReader 2 (protocol settings: −1.7 psi, upstream voltage −500, downstream voltage −3000, post sample sip 35 s).

The mark [3] stands for this setting: wild type NTRK1, 1 mM ATP, read-out: NTRK1 IC50.

Like-named read-outs stand apart in the source and are kept apart here. Bounds are passed on as bounds.

Sequence of wild type NTRK1 enzyme (P04629 33-796): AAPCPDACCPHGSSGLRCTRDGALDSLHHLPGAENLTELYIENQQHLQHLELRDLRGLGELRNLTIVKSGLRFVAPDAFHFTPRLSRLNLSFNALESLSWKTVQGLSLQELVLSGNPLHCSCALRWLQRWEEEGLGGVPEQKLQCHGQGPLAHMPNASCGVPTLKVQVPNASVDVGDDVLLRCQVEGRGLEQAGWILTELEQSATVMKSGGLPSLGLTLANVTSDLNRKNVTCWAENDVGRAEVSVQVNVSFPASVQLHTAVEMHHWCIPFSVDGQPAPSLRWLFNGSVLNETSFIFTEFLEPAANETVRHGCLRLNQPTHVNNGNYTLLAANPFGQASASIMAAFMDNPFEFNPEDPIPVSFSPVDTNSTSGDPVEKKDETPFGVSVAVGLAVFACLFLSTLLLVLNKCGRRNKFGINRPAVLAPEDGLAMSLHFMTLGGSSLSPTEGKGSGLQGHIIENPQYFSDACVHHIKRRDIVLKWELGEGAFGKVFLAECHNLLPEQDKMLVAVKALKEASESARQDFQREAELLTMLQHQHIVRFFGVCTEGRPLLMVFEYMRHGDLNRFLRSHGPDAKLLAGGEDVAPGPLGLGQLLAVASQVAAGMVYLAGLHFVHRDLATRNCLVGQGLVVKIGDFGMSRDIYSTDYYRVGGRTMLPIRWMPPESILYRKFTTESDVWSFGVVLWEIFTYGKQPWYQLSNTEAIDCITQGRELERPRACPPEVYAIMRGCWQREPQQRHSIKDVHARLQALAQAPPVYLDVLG

As to `N#Cc1cnn2ccc(N3C[C@@H](F)C[C@@H]3c3cc(F)cnc3Cl)nc12` [Compound 10], the IC50 (in experiment [1]; in experiment [2] (Homo sapiens); at wild type NTRK1 enzyme (setting [3])) was < 10 nM each time.
`N#Cc1cnn2ccc(N3C[C@@H](C#N)C[C@@H]3c3cc(F)ccc3F)nc12` [Compound 5, 5-((2R,4S)-4-cyano-2-(2,5-difluorophenyl)pyrrolidin-1-yl)pyrazolo[1,5-a]pyrimidine-3-carbonitrile]: the half-inhibitory concentration (IC50) is 100 to 1000 nM in experiment [1], 10 to 100 nM in experiment [2] (Homo sapiens) and 10 to 100 nM at wild type NTRK1 enzyme (setting [3]).
Consider `Cn1cc(F)cc([C@H]2C[C@H](F)CN2c2ccn3ncc(C#N)c3n2)c1=O` [Compound 8, 5-((2R,4S)-4-fluoro-2-(5-fluoro-1-methyl-2-oxo-1,2-dihydropyridin-3-yl)pyrrolidin-1-yl)pyrazolo[1,5-a]pyrimidine-3-carbonitrile], for which the IC50 in experiment [1] is 100 to 1000 nM; in experiment [2] (Homo sapiens), 10 to 100 nM; on wild type NTRK1 enzyme (setting [3]) it was 10 to 100 nM.
Take `CNC(=O)c1cc(F)cc([C@H]2C[C@H](F)CN2c2ccn3ncc(C#N)c3n2)c1` [Compound 20, 3-((2R,4S)-1-(3-cyanopyrazolo[1,5-a]pyrimidin-5-yl)-4-fluoropyrrolidin-2-yl)-5-fluoro-N-methylbenzamide]: the concentration for half-maximal inhibition (IC50) (in experiment [1]; in experiment [2] (Homo sapiens); at wild type NTRK1 enzyme (setting [3])) was 10 to 100 nM in each case.
On to `CC(C)NC(=O)[C@H]1CC[C@@H](n2c(NC(=O)c3ccc(F)cc3)nc3ccc(CN4CCC(C(C)(C)O)CC4)cc32)CC1` [TSR-011, reference compound], for which the GI50 was determined as 12000 nM in experiment [1] (NTRK G595R cellular, known NTRK inhibitors) and 32 nM in experiment [2]. Besides, at wild type NTRK1 enzyme (NTRK wt, known NTRK inhibitors, read-out: NTRK wt Enzyme Assay IC50), the IC50 is 2.3 nM.
On to `COc1ncc(F)cc1[C@H]1C[C@H](F)CN1c1ccn2ncc(C#N)c2n1` [Compound 7, 5-((2R,4S)-4-fluoro-2-(5-fluoro-2-methoxypyridin-3-yl)pyrrolidin-1-yl)pyrazolo[1,5-a]pyrimidine-3-carbonitrile], for which the IC50 (in experiment [1]; in experiment [2] (Homo sapiens); on wild type NTRK1 enzyme (setting [3])) was < 10 nM each time.
Regarding `N#Cc1cnn2ccc(N3C[C@@H](F)C[C@@H]3c3cc(F)ccc3F)nc12` [Compound 2], the 50% inhibitory concentration (IC50) (in experiment [1]; in experiment [2] (Homo sapiens); at wild type NTRK1 enzyme (setting [3])) was < 10 nM throughout.
`N#Cc1cc(F)cc([C@H]2C[C@H](F)CN2c2ccn3ncc(C#N)c3n2)c1` [Compound 6, 5-((2R,4S)-2-(3-cyano-5-fluorophenyl)-4-fluoropyrrolidin-1-yl)pyrazolo[1,5-a]pyrimidine-3-carbonitrile]: the IC50 (in experiment [1]; in experiment [2] (Homo sapiens); at wild type NTRK1 enzyme (setting [3])) was < 10 nM in each case.
Consider `N#Cc1cnn2ccc(N3C[C@@H](F)C[C@@H]3c3cncc(F)c3)nc12` [Compound 1, 5-((2R,4S)-4-fluoro-2-(5-fluoropyridin-3-yl)pyrrolidin-1-yl)pyrazolo[1,5-a]pyrimidine-3-carbonitrile], for which the IC50 is 10 to 100 nM in experiment [1], < 10 nM in experiment [2] (Homo sapiens) and < 10 nM on wild type NTRK1 enzyme (setting [3]).
In the case of `N#Cc1cnn2ccc(N3C[C@@H](F)C[C@@H]3c3cc(F)cc(C(=O)NCCO)c3)nc12` [Compound 18], the IC50 (in experiment [1]; in experiment [2] (Homo sapiens); at wild type NTRK1 enzyme (setting [3])) was 10 to 100 nM in each case.
As for `N#Cc1cnn2ccc(N3C[C@@H](F)C[C@@H]3c3cc(F)cc(Cl)c3)nc12` [Compound 9], the half-maximal inhibitory concentration (IC50) (in experiment [1]; in experiment [2] (Homo sapiens); at wild type NTRK1 enzyme (setting [3])) was < 10 nM in each case.
For the compound `N#Cc1cnn2ccc(N3C[C@@H](F)C[C@@H]3c3cc(F)ccc3OC(F)(F)F)nc12` [Compound 17], the IC50 (in experiment [1]; in experiment [2] (Homo sapiens); on wild type NTRK1 enzyme (setting [3])) was < 10 nM each time.
In the case of `N#Cc1cnn2ccc(N3C[C@@H](F)C[C@@H]3c3cc(F)ccc3C(N)=O)nc12` [Compound 22, 2-((2R,4S)-1-(3-cyanopyrazolo[1,5-a]pyrimidin-5-yl)-4-fluoropyrrolidin-2-yl)-4-fluorobenzamide], the IC50 was 100 to 1000 nM in experiment [1], 10 to 100 nM in experiment [2] (Homo sapiens) and 10 to 100 nM at wild type NTRK1 enzyme (setting [3]).
As to `N#Cc1cnn2ccc(N3CC(F)(F)C[C@@H]3c3cncc(F)c3)nc12` [Compound 3, (R)-5-(4,4-difluoro-2-(5-fluoropyridin-3-yl)pyrrolidin-1-yl)pyrazolo[1,5-a]pyrimidine-3-carbonitrile], the IC50 lay in the range of 100 to 1000 nM in experiment [1], 10 to 100 nM in experiment [2] (Homo sapiens) and 10 to 100 nM on wild type NTRK1 enzyme (setting [3]).
On to `N#Cc1cnn2ccc(N3C[C@@H](F)C[C@@H]3c3cc(F)cc(S(N)(=O)=O)c3)nc12` [Compound 16], for which the IC50 in experiment [1] was 10 to 100 nM; in experiment [2] (Homo sapiens), 10 to 100 nM; on wild type NTRK1 enzyme (setting [3]), < 10 nM.
On to `N#Cc1cc(F)cc([C@H]2C[C@H](F)CN2c2nc3c(C#N)cnn3cc2F)c1` [Compound 12], for which the half-maximal inhibitory concentration (IC50) (in experiment [1]; in experiment [2] (Homo sapiens); on wild type NTRK1 enzyme (setting [3])) was < 10 nM throughout.
`C[C@@H](Oc1cc(-c2cnn(C3CCNCC3)c2)cnc1N)c1c(Cl)ccc(F)c1Cl` [Crizotinib, reference compound] returned a 50% growth inhibitory concentration (GI50) in experiment [2] (Homo sapiens, KM12) of 87 nM.
In the case of `COc1c(F)cc(F)cc1[C@H]1C[C@H](F)CN1c1ccn2ncc(C#N)c2n1` [Compound 13], the IC50 (in experiment [1]; in experiment [2] (Homo sapiens); on wild type NTRK1 enzyme (setting [3])) was < 10 nM each time.
With `N#Cc1cnn2ccc(N3C[C@@H](F)C[C@@H]3c3cc(F)cc(C(N)=O)c3)nc12` [Compound 11], the values for the IC50 (in experiment [1]; in experiment [2] (Homo sapiens); at wild type NTRK1 enzyme (setting [3])) were 10 to 100 nM, < 10 nM and < 10 nM, respectively.
As for `CN(C)C(=O)c1cc(F)cc([C@H]2C[C@H](F)CN2c2ccn3ncc(C#N)c3n2)c1` [Compound 21], the half-inhibitory concentration (IC50) in experiment [1] fell in the range of 100 to 1000 nM; in experiment [2] (Homo sapiens), 10 to 100 nM; at wild type NTRK1 enzyme (setting [3]), 10 to 100 nM.
Consider `N#Cc1cnn2cc(F)c(N3C[C@@H](F)C[C@@H]3c3cc(F)cc(C(N)=O)c3)nc12` [Compound 15], for which the IC50 was 10 to 100 nM in experiment [1], 10 to 100 nM in experiment [2] (Homo sapiens) and < 10 nM at wild type NTRK1 enzyme (setting [3]).
Regarding `N#Cc1cnn2cc(F)c(N3C[C@@H](F)C[C@@H]3c3cncc(F)c3)nc12` [Compound 4, 6-fluoro-5-((2R,4S)-4-fluoro-2-(5-fluoropyridin-3-yl)pyrrolidin-1-yl)pyrazolo[1,5-a]pyrimidine-3-carbonitrile], the half-maximal inhibitory concentration (IC50) (in experiment [1]; in experiment [2] (Homo sapiens); on wild type NTRK1 enzyme (setting [3])) was < 10 nM each time.
Regarding `CC(C)(O)c1cc(F)cc([C@H]2C[C@H](F)CN2c2ccn3ncc(C#N)c3n2)c1` [Compound 14, 5-((2R,4S)-4-fluoro-2-(3-fluoro-5-(2-hydroxypropan-2-yl)phenyl)pyrrolidin-1-yl)pyrazolo[1,5-a]pyrimidine-3-carbonitrile], the IC50 in experiment [1] lay within 100 to 1000 nM; in experiment [2] (Homo sapiens) it was 10 to 100 nM; on wild type NTRK1 enzyme (setting [3]) it was 10 to 100 nM.
On to `N#Cc1cnn2ccc(N3C[C@@H](F)C[C@@H]3c3cc(F)cc(C(=O)NCC4CC4)c3)nc12` [Compound 19], for which the IC50 in experiment [1] was 10 to 100 nM; in experiment [2] (Homo sapiens), 10 to 100 nM; on wild type NTRK1 enzyme (setting [3]) it was < 10 nM.
